From US4337248A, “Paromomycin containing compounds and method of use” (Farmitalia Carlo Erba S.p.A., priority 1979, dated 1982)
Converted amounts (≈) assume the structure as drawn. Like-named read-outs stand apart in the source and are kept apart here.

Assays:
Assay type in all cases: cell-based
bacteria = experiment: In vitro antibacterial activity (general statement)
Protocol: (§1) The "in vitro" tests are carried out with the method of serial dilutions in liquid medium (Nutrient Broth Difco) and the minimal inhibition concentration (MIC) is determined after 24 hours incubation at 37° C.

[1] = tested on: Escherichia coli K 12-R 148; experiment: In vitro MIC by serial dilution in liquid medium, Escherichia coli K 12-R 148; conditions: K12R148; Escherichia coli K 12-R 148, inactivating enzyme APH (3') II; Nutrient Broth Difco, 24 hours, 37° C; read-out: minimum inhibitory concentration (MIC)
Protocol: as §1

[2] = tested on: resistant strains of gram-negative bacteria; experiment: In vitro antibacterial activity, resistant strains of gram-negative bacteria (summary in words); conditions: against some resistant strains of gram-negative bacteria
Protocol: as §1

[3] = tested on: Escherichia coli K 12-R 112; experiment: In vitro MIC by serial dilution in liquid medium, Escherichia coli K 12-R 112; conditions: K12R112, 24 h, read-out: minimum inhibitory concentration (MIC)
Protocol: as §1

[4] = tested on: Staphylococcus aureus 209P; experiment: In vitro MIC by serial dilution in liquid medium, Staphylococcus aureus 209P; conditions: read-out: minimum inhibitory concentration (MIC)
Protocol: as §1

[5] = tested on: Escherichia coli K 12-R 55; experiment: In vitro MIC by serial dilution in liquid medium, Escherichia coli K 12-R 55; conditions: K12R55; Escherichia coli K 12-R 55, inactivating enzyme AAC (3) I; Nutrient Broth Difco, 24 hours, 37° C; read-out: minimum inhibitory concentration (MIC)
Protocol: as §1

Escherichia coli K 12 = experiment: In vitro MIC by serial dilution in liquid medium, Escherichia coli K 12; conditions: K12, Nutrient Broth Difco, 24 hours, 37° C, read-out: minimum inhibitory concentration (MIC)
Protocol: as §1

[6] = Staphylococcus aureus 209P, Nutrient Broth Difco, 24 hours, 37° C

SMILES | antibacterial activity "in vitro" (bacteria) | MIC [1] | activity compared with paromomycin [2] | MIC [3] | MIC [4, 6] | MIC [5] | MIC (Escherichia coli K 12) | MIC ([4]; Staphylococcus aureus, 209P, 24 h)
NC[C@@H]1O[C@H](O[C@H]2[C@@H](O)[C@H](O[C@@H]3[C@@H](O)[C@H](N)C[C@H](N)[C@H]3O[C@H]3O[C@H](CO)C[C@H](O)[C@H]3N)O[C@@H]2CO)[C@H](N)[C@@H](O)[C@@H]1O [(8), 4'-Deoxy paromomycin] | display antibacterial activity | 50 µg/mL (≈ 83.4 µM) | increased activity against some resistant strains of gram-negative bacteria | > 200 µg/mL | 1.55 µg/mL (≈ 2.58 µM) | 6.25 µg/mL (≈ 10.4 µM) | 12.5 µg/mL (≈ 20.8 µM) | –
NC[C@@H]1O[C@H](O[C@H]2[C@@H](O)[C@H](O[C@@H]3[C@@H](O)[C@H](N)C[C@H](N)[C@H]3O[C@H]3O[C@H](CO)[C@H](Cl)[C@H](O)[C@H]3N)O[C@@H]2CO)[C@H](N)[C@@H](O)[C@@H]1O [(12), 4'-Deoxy-4'-epi-chloro-paromomycin] | display antibacterial activity | 200 µg/mL (≈ 315 µM) | – | > 200 µg/mL | 6.25 µg/mL (≈ 9.86 µM) | 50 µg/mL (≈ 78.9 µM) | 50 µg/mL (≈ 78.9 µM) | –
NC[C@@H]1O[C@H](O[C@H]2[C@@H](O)[C@H](O[C@@H]3[C@@H](O)[C@H](N)C[C@H](N)[C@H]3O[C@H]3O[C@H](CO)[C@@H](O)[C@H](O)[C@H]3N)O[C@@H]2CO)[C@H](N)[C@@H](O)[C@@H]1O [paromomycin] | – | > 200 µg/mL | – | > 200 µg/mL | – | 6.25 µg/mL (≈ 10.2 µM) | 12.5 µg/mL (≈ 20.3 µM) | 1.55 µg/mL (≈ 2.52 µM)
